Measured values taken from patent US10407467B2, “Polymyxin derivatives and their use in combination therapy together with different antibiotics” (priority 2013, dated 2019).
Where a name gives a salt, the structure may show the parent alone. Bridge positions count the residues as written; N and C are the ends. Square brackets hold non-standard residues; d marks the D form. Peptide text beside a SMILES is read from it. * marks the point of attachment. ξ: configuration not given here. ξHexahydromandeloyl = O=C(C(O)C1CCCCC1)*; ξβ3hGly(cHex) = NC(CC(=O)*)C1CCCCC1; Thr(3ξ) = CC(O)[C@H](N)C(=O)O; Dab = NCC[C@H](N)C(=O)O; Dap = NC[C@H](N)C(=O)O; X4 = NC1CCCC1C(=O)*

Columns and labels:
Type in all cases: cell-based
Acinetobacter baumannii [1] = assay: MIC, compound in combination with a second agent (broth microdilution); conditions: 1:1 (wt:wt) combination with Rifampicin, MIC = total drug concentration; for MIC A. baumannii ATCC BAA-747: strain ATCC BAA-747; for MIC A. baumannii CCUG57249: strain CCUG57249; for MIC A. baumannii NCTC 13423: strain NCTC 13423; for MIC A. baumannii NCTC 13424: strain NCTC 13424
Procedure, shortened: (§1)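 MIC values express combined concentration of test compound plus partner agent such as rifampicin, mixed at equal mass (1:1 w/w, salt-form weight). Direct colony suspensions at 0.5 McFarland, up to four strains per species, tested in duplicate; >2-fold disagreement invalid, otherwise lower value or mode of repeats reported.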

Klebsiella pneumoniae [2] = assay: as above; conditions: 1:1 (wt:wt) combination with Rifampicin, MIC = total drug concentration; for MIC K. pneumoniae ATCC 4352: strain ATCC 4352; for MIC K. pneumoniae ATCC-BAA-2146: strain ATCC-BAA-2146; for MIC K. pneumoniae CCUG-59348: strain CCUG-59348
Procedure, shortened: as §1

Pseudomonas aeruginosa [3] = assay: as above; conditions: 1:1 (wt:wt) combination with Rifampicin, MIC = total drug concentration; for MIC P. aeruginosa ATCC 27853: strain ATCC 27853; for MIC P. aeruginosa ATCC CRM-9027: strain ATCC CRM-9027; for MIC P. aeruginosa ATCC-47: strain ATCC-47; for MIC P. aeruginosa CCUG 59626: strain CCUG 59626
Procedure, shortened: as §1

Escherichia coli [4] = assay: as above; conditions: 1:1 (wt:wt) combination with Rifampicin, MIC = total drug concentration; for MIC E. coli ATCC25922: strain ATCC25922; for MIC E. coli NCTC9001: strain NCTC9001
Procedure, shortened: as §1

Acinetobacter baumannii [5] = assay: MIC, sole activity (no second agent); conditions: in the absence of Rifampicin; for MIC A. baumannii ATCC13424: strain ATCC13424; for MIC A. baumannii ATCCBAA-747: strain ATCCBAA-747; for MIC A. baumannii CCUG57249: strain CCUG 57249; for MIC A. baumannii NCTC 13423: strain NCTC13423
Procedure, shortened: (§2)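 Up to four strains per species were tested in cation-adjusted Mueller-Hinton broth, with inoculum made by direct colony suspension from 18-24 hour Mueller-Hinton agar plates, adjusted to 0.5 McFarland. Duplicates differing by under 2-fold gave the lower value; greater spread voided the run. Values are relative to Polymyxin B.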

Klebsiella pneumoniae [6] = assay: MIC, sole activity (no second agent); conditions: in the absence of Rifampicin; for MIC K. pneumoniae ATCC 4352: strain ATCC 4352; for MIC K. pneumoniae ATCC-BAA2146: strain ATCC-BAA2146; for MIC K. pneumoniae CCUG-59348: strain CCUG-59348
Procedure, shortened: as §2

Pseudomonas aeruginosa [7] = assay: MIC, sole activity (no second agent); conditions: in the absence of Rifampicin; for MIC P. aeruginosa ATCC 27853: strain ATCC27853; for MIC P. aeruginosa ATCC-47: strain ATCC-47; for MIC P. aeruginosa ATCCCRM-9027: strain ATCCCRM-9027; for MIC P. aeruginosa CCUG 59626: strain CCUG 59626
Procedure, shortened: as §2

Escherichia coli [8] = assay: MIC, sole activity (no second agent); conditions: in the absence of Rifampicin; for MIC E. coli ATCC25922: strain ATCC25922; for MIC E. coli NCTC9001: strain NCTC9001
Procedure, shortened: as §2

SMILES	MIC A. baumannii CCUG57249 (Acinetobacter baumannii [1]) [micrograms/mL]	MIC A. baumannii NCTC 13423 (Acinetobacter baumannii [1]) [micrograms/mL]	MIC A. baumannii NCTC 13424 (Acinetobacter baumannii [1]) [micrograms/mL]	MIC K. pneumoniae ATCC 4352 (Klebsiella pneumoniae [2]) [micrograms/mL]	MIC K. pneumoniae ATCC-BAA-2146 (Klebsiella pneumoniae [2]) [micrograms/mL]	MIC K. pneumoniae CCUG-59348 (Klebsiella pneumoniae [2]) [micrograms/mL]	MIC P. aeruginosa ATCC 27853 (Pseudomonas aeruginosa [3]) [micrograms/mL]	MIC P. aeruginosa ATCC CRM-9027 (Pseudomonas aeruginosa [3]) [micrograms/mL]	MIC P. aeruginosa ATCC-47 (Pseudomonas aeruginosa [3]) [micrograms/mL]	MIC P. aeruginosa CCUG 59626 (Pseudomonas aeruginosa [3]) [micrograms/mL]	MIC E. coli ATCC25922 (Escherichia coli [4]) [micrograms/mL]	MIC A. baumannii ATCCBAA-747 (Acinetobacter baumannii [5]) [micrograms/mL]	MIC A. baumannii NCTC 13423 (Acinetobacter baumannii [5]) [micrograms/mL]	MIC K. pneumoniae ATCC 4352 (Klebsiella pneumoniae [6]) [micrograms/mL]	MIC K. pneumoniae ATCC-BAA2146 (Klebsiella pneumoniae [6]) [micrograms/mL]	MIC K. pneumoniae CCUG-59348 (Klebsiella pneumoniae [6]) [micrograms/mL]	MIC P. aeruginosa ATCC 27853 (Pseudomonas aeruginosa [7]) [micrograms/mL]	MIC P. aeruginosa ATCC-47 (Pseudomonas aeruginosa [7]) [micrograms/mL]	MIC P. aeruginosa ATCCCRM-9027 (Pseudomonas aeruginosa [7]) [micrograms/mL]	MIC P. aeruginosa CCUG 59626 (Pseudomonas aeruginosa [7]) [micrograms/mL]	also measured
CC(C)C[C@@H]1NC(=O)[C@@H](Cc2ccccc2)NC(=O)[C@H](CCN)NC(=O)[C@@H](NC(=O)[C@H](CN)NC(=O)[C@@H](NC(=O)C2CCCC2N)C(C)O)CCNC(=O)[C@H](C(C)O)NC(=O)[C@H](CCN)NC(=O)[C@H](CCN)NC1=O (stereo partly drawn) [Example 43, [2-Amino-cyclopentane-carbonyl]-L-Thr-L-Dap-polymyxin B hepatapeptide, TFA salt] (X4-[Thr(3ξ)][Dap][Dab][Dab][dF]L[Dab][Dab][Thr(3ξ)]; lactam 3-C)	≤0.06	≤0.06	0.125	0.125	0.25	2	0.125	0.125	0.125	0.125	0.125	0.5	0.125	0.5	4	>32	0.125	1	0.125	≤0.06	MIC A. baumannii ATCC BAA-747 (Acinetobacter baumannii [1]): 0.125 micrograms/mL; MIC E. coli NCTC9001 (Escherichia coli [4]): 0.125 micrograms/mL; MIC A. baumannii ATCC13424 (Acinetobacter baumannii [5]): 0.25 micrograms/mL; MIC A. baumannii CCUG57249 (Acinetobacter baumannii [5]): 0.5 micrograms/mL; MIC E. coli ATCC25922 (Escherichia coli [8]): 2 micrograms/mL; MIC E. coli NCTC9001 (Escherichia coli [8]): 16 micrograms/mL
CC(C)C[C@@H]1NC(=O)[C@@H](Cc2ccccc2)NC(=O)[C@H](CCN)NC(=O)[C@@H](NC(=O)[C@H](CN)NC(=O)[C@@H](NC(=O)C(O)C2CCCCC2)C(C)O)CCNC(=O)[C@H](C(C)O)NC(=O)[C@H](CCN)NC(=O)[C@H](CCN)NC1=O (stereo partly drawn) [Example 45, [2-cyclohexyl-2-hydroxyethanoyl]-L-Thr-L-Dap-polymyxin B heptapeptide, TFA salt] (ξHexahydromandeloyl-[Thr(3ξ)][Dap][Dab][Dab][dF]L[Dab][Dab][Thr(3ξ)]; lactam 3-C)	0.25	0.125	0.125	0.25	0.5	1	0.5	0.5	0.25	0.25	≤0.06	2	1	0.25	2	32	0.25	1	0.125	0.125	MIC A. baumannii ATCC13424 (Acinetobacter baumannii [5]): 1 micrograms/mL; MIC A. baumannii CCUG57249 (Acinetobacter baumannii [5]): 2 micrograms/mL; MIC E. coli NCTC9001 (Escherichia coli [8]): 16 micrograms/mL
CC(C)C[C@@H]1NC(=O)[C@@H](Cc2ccccc2)NC(=O)[C@H](CCN)NC(=O)[C@@H](NC(=O)[C@@H](CO)NC(=O)[C@@H](NC(=O)CC(N)C2CCCCC2)[C@@H](C)O)CCNC(=O)[C@H](C(C)O)NC(=O)[C@H](CCN)NC(=O)[C@H](CCN)NC1=O (stereo partly drawn) [Example 48, [3-Amino-3-cyclohexyl-propionyl]-L-Thr-D-Ser-polymyxin B heptapeptide, TFA salt] ({ξβ3hGly(cHex)}-T[dS][Dab][Dab][dF]L[Dab][Dab][Thr(3ξ)]; lactam 3-C)	≤0.06	0.125	≤0.06	0.25	2	2	1	1	2	1	0.25	0.25	0.25	0.5	4	>32	4	8	0.5	1	MIC A. baumannii ATCC BAA-747 (Acinetobacter baumannii [1]): 0.125 micrograms/mL; MIC E. coli NCTC9001 (Escherichia coli [4]): 0.5 micrograms/mL; MIC E. coli NCTC9001 (Escherichia coli [8]): >32 micrograms/mL
CC(C)C[C@H]1NC(=O)[C@H](CCN)NC(=O)[C@@H](NC(=O)[C@H](CCN)NC(=O)[C@@H](NC(=O)CC(N)C2CCCCC2)C(C)O)CCNC(=O)[C@H](C(C)O)NC(=O)[C@H](CCN)NC(=O)[C@H](CCN)NC(=O)[C@H](C(C)O)NC1=O (stereo partly drawn) [Example 50, 3-Amino-3-cyclohexyl propanoyl-Thr-Dab-(cyclo)Dab*-Dab-DLeu-Thr-Dab-Dab-Thr*] ({ξβ3hGly(cHex)}-[Thr(3ξ)][Dab][Dab][Dab][dL][Thr(3ξ)][Dab][Dab][Thr(3ξ)]; lactam 3-C)	0.125	0.125	0.125	≤0.06	0.25	8	0.125	0.125	0.25	0.25	≤0.06	4	2	4	16	>32	32	32	0.5	2	MIC A. baumannii ATCC BAA-747 (Acinetobacter baumannii [1]): 0.125 micrograms/mL; MIC E. coli NCTC9001 (Escherichia coli [4]): 0.125 micrograms/mL; MIC A. baumannii ATCC13424 (Acinetobacter baumannii [5]): 4 micrograms/mL; MIC A. baumannii CCUG57249 (Acinetobacter baumannii [5]): 4 micrograms/mL; MIC E. coli ATCC25922 (Escherichia coli [8]): >32 micrograms/mL; MIC E. coli NCTC9001 (Escherichia coli [8]): >32 micrograms/mL
